Each block holds one molecule with its values, some of them ahead of it.
What was measured:
[1] = test system: scopolamine-induced memory disordered model mice; test: Morris water maze spatial probe test in scopolamine-induced memory disordered mice; format: in vivo, Kunming mice; settings: for Latent period of crossing the original platform / Number of time of crossing platform: fifth day, Mean ± SD
Experimental: (§1) Fifty Kunming mice, weighing 18-22 g, were randomly divided into five groups: blank control group, model group, low-dose PQQ betaine salt group (1.5 mg/kg), high-dose PQQ betaine salt group (3 mg/kg) and positive control group (donepezil, 3 mg/kg), respectively, 10 mice in each group. Wherein the PQQ betaine salt used is a crystalline Form A of pyrroloquinoline quinone betaine salt prepared according to the method of example 1.
(§2) The blank control group and the model group were administered with distilled water by gavage, the low-dose PQQ betaine salt group, the high-dose group and positive control group were administered with drugs by gavage respectively, once a day. Learning and memory training was carried out on the fifth day of administration and for 5 days in total; the model group, the low-dose PQQ betaine salt group, the high-dose group and the positive control group were intraperitoneally injected with 2 mg/kg of scopolamine 20 minutes earlier before training to obtain memory disordered models, while the blank control group was injected with a corresponding volume of saline. Morris water maze experiment were carried out for 5 days in total, wherein, a place navigation test was carried out in the first 4 days in order to observe and record the time required for the experimental animals to seek and climb onto the platform, in order to test the learning ability of mice. On the fifth day, a spatial probe test was carried out, during the test, the platform was removed, the time (the latent period) when crossing the original platform position for the first time was recorded as well as the number of time of traversing the original platform position for the animal, in order to test the spatial memory capacity of the animal. The latent period and the number of time of traversing platforms were used as evaluation indexes to detect the improvement of learning and memory in dementia model mice.

[2] = Standing at room temperature (hygroscopicity observation); format: physicochemical; settings: room temperature (25° C., about 50% humidity), a period of time
[3] = test system: CC14-induced acute liver injury model mice; test: CC14-induced acute liver injury model: ALT, AST in serum, SOD, GSH-Px, MDA in liver homogenate; format: in vivo, Kunming mice; settings: for GSH-Px / MDA / SOD: liver homogenate, Mean ± SD; for GSH-Px / MDA / SOD / ALT / AST: 3 mg/kg by weight of PQQ, gavage once a day for 7 days; for ALT / AST: serum, 24 h after CC14, Mean ± SD
Experimental: Forty-eight male Kunming mice weighing 18-22 g were randomly divided into 4 groups: blank control group, CC14 model group, PQQ disodium salt group and PQQ betaine salt group, respectively, with 12 mice in each group.
On the 7th day after gavage for 1 h, the mice in CC14 model group, PQQ disodium salt group and PQQ betaine salt group were injected intraperitoneally with 0.25% CC14 peanut oil (10 mL/kg) once, resulting in acute liver injury models; while mice in the blank control group were injected intraperitoneally with peanut oil (10 mL/kg) once. Animals were sacrificed after orbital blood collection for 24 h. 0.5-1 mL blood was collected from the mouse orbit, serum was separated by static centrifugation, and ALT and AST levels in serum were measured by biochemical kits. Animals were sacrificed and livers were removed for preparing liver homogenate. Superoxide dismutase (SOD), glutathione peroxidase (GSH-Px) activity and malondialdehyde (MDA) content in liver homogenates were determined by biochemical kits.

[4] = High humidity stability of the crystalline form (XRPD); settings: humidity of 92.5%, 5 days and 10 days
Description: The appropriate amount of sample of the crystalline Form A of pyrroloquinoline quinone betaine salt is subjected to the humidity of 92.5%, and after 5 days and 10 days the samples were removed for XPRD testing (as shown in FIGS. 4 and 5) to examine the crystalline stability of the sample against humidity.

[5] = Solubility of saturated aqueous solution by UV absorbance at 450 nm
[6] = Illumination stability of the crystalline form (XRPD); settings: light intensity of 4500 lux, 5 and 10 days
Description: An appropriate amount of sample of the crystalline Form A of pyrroloquinoline quinone betaine salt was subjected to a light intensity of 4500 lux, and after 5 and 10 days the sample was removed for XPRD testing (as shown in FIGS. 6 and 7) to examine the crystalline stability of the sample under illumination.

[7] = High temperature stability of the crystalline form (XRPD); settings: oven at 60° C., 5 days and 10 days
Experimental: An appropriate amount of sample of the crystalline Form A of Pyrroloquinoline Quinone Betaine Salt was placed in an oven at 60° C., and after 5 days and 10 days the sample was removed for XPRD testing (as shown in FIGS. 2 and 3) to examine the crystalline stability of the sample against temperature.

[8] = test system: scopolamine-induced memory disordered model mice; test: Morris water maze place navigation test in scopolamine-induced memory disordered mice; format: in vivo, Kunming mice; settings: for Latent period, the first day / Latent period, the fourth day / Latent period, the second day / Latent period, the third day: time to climb onto the platform, Mean ± SD
Experimental: as §1, §2

[9] = Dynamic moisture sorption (DVS) hygroscopicity; format: physicochemical; settings: warehouse environment (humidity of 45%)
[10] = P<0.05 compared to the model group

Molecule: COc1cc2c(cc1OC)C(=O)C(CC1CCN(Cc3ccccc3)CC1)C2 (centres unmarked) [Donepezil, donepezil, reference compound]
- Latent period of crossing the original platform ([1]; 3 mg/kg): 16.41 ± 7.60^ΔΔ s
- Number of time of crossing platform ([1]; 3 mg/kg): 2.90 ± 0.57^ΔΔ

- appearance after standing (hygroscopicity) [2]: became a sticky solid
Molecule: C[N+](C)(C)CCO.C[N+](C)(C)CCO.C[N+](C)(C)CCO.O=C(O)c1cc(C(=O)O)c2c(n1)C(=O)C(=O)c1cc(C(=O)O)[nH]c1-2 [tricholine salt of PQQ]

Molecule: O=C([O-])c1cc(C(=O)[O-])c2c(n1)C(=O)C(=O)c1cc(C(=O)O)[nH]c1-2.[Na+].[Na+] [Disodium salt of PQQ, reference compound]
- GSH-Px [3]: 93.4 ± 10.1^ΔΔ kU/g pro
- MDA [3]: 2.71 ± 0.37^Δ nmol/L
- SOD [3]: 29.5 ± 4.9^Δ kU/g pro
- ALT [3]: 126.5 ± 27.0^ΔΔ IU/L
- AST [3]: 115.4 ± 22.7^Δ IU/L

Molecule: pyrroloquinoline quinone betaine salt [PQQ betaine salt]
- Latent period of crossing the original platform ([1]; 1.5 mg/kg): 25.48 ± 12.19^ΔΔ s
- Number of time of crossing platform ([1]; 1.5 mg/kg): 2.20 ± 0.42^Δ
- Latent period of crossing the original platform ([1]; 3 mg/kg): 20.98 ± 9.44^ΔΔ s
- Number of time of crossing platform ([1]; 3 mg/kg): 2.10 ± 0.57^Δ
- latent period in spatial search compared to the model group [1, 10]: reduced
- number of time of crossing platform compared to the model group [1, 10]: increased
- crystalline stability against humidity [4]: stable
- Relative ratio (solubility) [5]: 1.50
- Solubility ([5]; saturated aqueous solution at 30° C., solubility of pyrroloquinoline quinone): 14.50 mmol/L
- effect on CC14-induced acute liver injury in mice ([3]; 3 mg/kg, gavage, 7 days, overall conclusion): significantly improved
- GSH-Px [3]: 93.5 ± 9.0^ΔΔ kU/g pro
- MDA [3]: 2.61 ± 0.37^ΔΔ nmol/L
- SOD [3]: 31.1 ± 4.5^ΔΔ kU/g pro
- ALT [3]: 110.1 ± 26.0^ΔΔ IU/L
- AST [3]: 110.0 ± 20.4^ΔΔ IU/L
- crystalline stability under illumination [6]: stable
- crystalline stability against temperature [7]: stable
- Latent period, the first day ([8]; 1.5 mg/kg gavage once a day): 74.30 ± 17.80 s
- Latent period, the fourth day ([8]; 1.5 mg/kg gavage once a day): 50.80 ± 15.95 s
- Latent period, the second day ([8]; 1.5 mg/kg gavage once a day): 62.90 ± 14.07 s
- Latent period, the third day ([8]; 1.5 mg/kg gavage once a day): 51.90 ± 16.43 s
- Latent period, the first day ([8]; 3 mg/kg gavage once a day): 74.70 ± 16.94 s
- Latent period, the fourth day ([8]; 3 mg/kg gavage once a day): 29.50 ± 12.29^ΔΔ s
- Latent period, the second day ([8]; 3 mg/kg gavage once a day): 62.30 ± 13.84 s
- Latent period, the third day ([8]; 3 mg/kg gavage once a day): 38.20 ± 14.01^Δ s
- latent period in place navigation compared with the model group ([8]; P<0.05 or P<0.01 compared with the model group): significantly shortened
- moisture sorption [9]: 1.1%

— patent US11414414B2, “Pyrroloquinoline quinone glycine betaine salt” (SHANGHAI XUANCHUANG BIOLOGICAL TECHNOLOGY CO., LTD., priority 2016, dated 2022)
